Laboratory results as given in US7410996B2, “3-aryloxy/thio-2,3-substituted propanamines and their use in inhibiting serotonin and norepinephrine reuptake” (Eli Lilly and Company, priority 2002, dated 2008).
Counter-ions that a name gives are not always drawn.

Key:
[1] = biological target: T1, human norepinephrine transporter (Homo sapiens, UniProt P23975); assay: [3H]-nisoxetine scintillation proximity binding assay (norepinephrine binding assay); conditions: read-out: Ki (NET)
T1 construct: isolate and amplify each of the three full-length cDNAs from an appropriate cDNA library; expressed in transfected cells; host or cells: HEK-293 cells, stably transfected (pcDNA3.1-type vector); membrane preparation
Source text: (§1) Generation of Stable Cell-lines Expressing the Human Dopamine, Norepinephrine and Serotonin Transporters
(§2) Standard molecular cloning techniques were used to generate stable cell-lines expressing the human dopamine, norepinephrine and serotonin transporters. The polymerase chain reaction (PCR) was used in order to isolate and amplify each of the three full-length cDNAs from an appropriate cDNA library. Primers for PCR were designed using the following published sequence data:
Human norepinephrine transporter: GenBank M65105. Reference: Pacholczyk T, Blakely, R D and Amara S G. Expression cloning of a cocaine- and antidepressant-sensitive human noradrenaline transporter. Nature (1991) volume 350, pages 350-354. […]
Cell pastes from large scale production of HEK-293 cells expressing cloned human norepinephrine transporters were homogenized in 4 volumes 50 mM Tris-HCl containing 300 mM NaCl and 5 mM KCl, pH 7.4. […] The protein concentration of the membrane preparation was determined using a bicinchoninic acid (BCA) protein assay reagent kit (available from Pierce). […]
The microtitre plates were incubated at room temperature for 10 hours prior to reading in a Trilux scintillation counter. The results were analysed using an automatic spline fitting programme (Multicalc, Packard, Milton Keynes, UK) to provide Ki values for each of the test compounds. […]

[2] = biological target: T2, human serotonin transporter (Homo sapiens, UniProt P31645); assay: [3H]-citalopram scintillation proximity binding assay (serotonin binding assay); conditions: read-out: Ki (SERT)
T2 construct: isolate and amplify each of the three full-length cDNAs from an appropriate cDNA library; expressed in transfected cells; host or cells: HEK293 cells, stably transfected (pcDNA3.1-type vector); membrane preparation
Source text: as §1, §2
Human serotonin transporter: GenBank L05568. Reference: Ramamoorthy S, Bauman A L, Moore K R, Han H, Yang-Feng T, Chang A S, Ganaphthy V and Blakely R D. Antidepressant- and cocaine-sensitive human serotonin transporter: Molecular cloning, expression, and chromosomal localization. Proceedings of the National Academy of Sciences of the USA (1993) volume 90, pages 2542-2546. […]
Membrane preparation is essentially similar to that for the norepinephrine transporter containing membranes as described above. […] The protein concentration of the membrane preparation was determined using a BCA protein assay reagent kit. […]
The microtitre plates were incubated at room temperature for 10 hours prior to reading in a Trilux scintillation counter. The results were analysed using an automatic spline fitting programme Multicalc, Packard, Milton Keynes, UK) to provide Ki (nM) values for each of the test compounds. […]

T2 sequence (P31645 whole entry): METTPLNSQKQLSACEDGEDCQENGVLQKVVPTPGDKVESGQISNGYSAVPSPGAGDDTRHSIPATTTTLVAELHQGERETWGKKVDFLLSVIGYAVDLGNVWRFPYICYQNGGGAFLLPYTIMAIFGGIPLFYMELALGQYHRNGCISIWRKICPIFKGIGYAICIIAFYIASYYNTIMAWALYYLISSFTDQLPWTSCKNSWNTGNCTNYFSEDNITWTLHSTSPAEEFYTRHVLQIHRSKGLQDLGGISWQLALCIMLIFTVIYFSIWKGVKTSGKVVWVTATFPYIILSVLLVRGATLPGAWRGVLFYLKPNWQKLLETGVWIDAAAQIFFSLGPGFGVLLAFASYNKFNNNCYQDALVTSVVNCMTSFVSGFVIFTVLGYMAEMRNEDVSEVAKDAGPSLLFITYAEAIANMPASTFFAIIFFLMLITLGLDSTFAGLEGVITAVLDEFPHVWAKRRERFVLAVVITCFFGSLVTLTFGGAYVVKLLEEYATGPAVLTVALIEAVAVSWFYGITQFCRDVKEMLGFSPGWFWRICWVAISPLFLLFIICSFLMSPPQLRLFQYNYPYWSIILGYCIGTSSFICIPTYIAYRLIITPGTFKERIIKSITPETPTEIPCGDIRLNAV
T1 sequence (P23975 whole entry): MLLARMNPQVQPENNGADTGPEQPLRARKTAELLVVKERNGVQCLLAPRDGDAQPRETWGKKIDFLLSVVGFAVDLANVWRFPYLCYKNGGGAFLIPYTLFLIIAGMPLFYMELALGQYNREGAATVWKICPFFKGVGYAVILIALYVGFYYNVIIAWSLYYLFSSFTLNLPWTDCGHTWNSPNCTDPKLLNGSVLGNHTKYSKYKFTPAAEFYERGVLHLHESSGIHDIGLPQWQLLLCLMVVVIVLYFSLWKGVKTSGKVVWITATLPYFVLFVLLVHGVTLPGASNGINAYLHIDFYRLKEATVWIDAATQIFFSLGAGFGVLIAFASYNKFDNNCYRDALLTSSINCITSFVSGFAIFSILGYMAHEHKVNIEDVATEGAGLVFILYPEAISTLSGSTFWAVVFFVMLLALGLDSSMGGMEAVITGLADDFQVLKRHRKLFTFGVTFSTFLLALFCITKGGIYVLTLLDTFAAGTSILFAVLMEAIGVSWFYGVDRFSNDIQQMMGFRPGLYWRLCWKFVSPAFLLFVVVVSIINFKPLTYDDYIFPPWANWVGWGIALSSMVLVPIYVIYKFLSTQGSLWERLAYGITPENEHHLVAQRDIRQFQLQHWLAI

Compound: CNC[C@@H](O)[C@@H](Oc1ccc(F)c2ccccc12)c1cccc(F)c1 [Example 32, (1S,2R)-1-(4-Fluoro-naphthalen-1-yloxy)-1-(3-fluoro-phenyl)-3-methylamino-propan-2-ol Hydrochloride]
- Ki [1]: 15.2 nM
- Ki [2]: 1.1 nM
